Where two headings read alike, the source gives them in different places.
Assays:
[1] = molecular target: T1, BRD4 (Homo sapiens, UniProt O60885); assay: Immunoblot for BRD4 in MV4-11 cells; format: cell-based
[2] = tested on: MV4-11; assay: Analysis of apoptotic cells by Caspase Glo assay; format: cell-based; settings: MV4-11, 4 or 8 hours treatment, assessed at 24 hours
[3] = molecular target: BRDT (Homo sapiens, UniProt Q58F21); assay: BRDT IC50 (Table 4); format: binding
[4] = molecular target: PLK1 (Homo sapiens, UniProt P53350); assay: PLK1 IC50 (Table 4); format: biochemical
[5] = tested on: 797; assay: Cell viability, 797 cells (Table 4); format: cell-based; settings: read-out: IC50 (nM) 797
[6] = tested on: CUTL1; assay: Cell viability, ATPlite 48 hours, CUTLL1; format: cell-based; settings: CUTL1 cells
[7] = tested on: DND41; assay: Cell viability, ATPlite 48 hours, DND41; format: cell-based; settings: DND41 cells
[8] = tested on: MOLT4; assay: Cell viability, ATPlite 48 hours, MOLT4; format: cell-based; settings: Homo sapiens, MOLT-4; MOLT4 cells
[9] = tested on: MV4; 11; assay: Cell viability, ATPlite 48 hours, MV4-11; format: cell-based; settings: Homo sapiens, 11 cells
[10] = tested on: NGP; assay: Cell viability, ATPlite 72 hours; format: cell-based; settings: read-out: IC50 (nM) NGP
[11] = molecular target: T2, BRD4 adjoined to nanoluciferase (Nluc) (Homo sapiens, UniProt O60885+Q96SW2); assay: BRD4 Dual Luciferase Assay; format: cell-based; settings: for Emax: read-out: BRD4− Emax (percent remaining);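 for all read-outs here: transduced reporter cells exposed to compound for 4 h, then Nluc and Fluc luminescence read, each normalized to DMSO controls and expressed as Nluc/Fluc ratio per well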
T2 construct: expressed in transfected cells

[12] = molecular target: T1, BRD4; assay: BRD4 Cell Western (BRD4 levels in 293T cells, LiCOR); format: cell-based; design: BRD4 levels in the cells after the dBET treatment; endogenous in cells
[13] = molecular target: T3, CRBN-DDB1 (Homo sapiens, UniProt Q96SW2); assay: CRBN-DDB1 Ligand-Displacement AlphaScreen Assay (thalidomide competition); format: binding; settings: biotin-thalidomide competition; read-out: THAL ALPHA (IC50);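 note: streptavidin donor and nickel chelate acceptor bead proximity signal after 30 min incubation, normalized with no-protein background as 0% and DMSO wells as 100% activity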
T3 construct: 6xHis (given for the complex); made in house; host or cells: Sf9 cells (Invitrogen), pFastBac

[14] = molecular target: T4, CRBN (Homo sapiens, UniProt Q96SW2); assay: Intracellular CRBN Engagement Assay (dFKBP7 rescue); format: cell-based; settings: competition with 80 nM dFKBP7, 3 hours; read-out: FKBP7 rescue (EC50)
T4 construct: endogenous in cells

[15] = molecular target: T1, BRD4; assay: BRD4 AlphaScreen; format: binding; design: […]; His tag (inferred from capture on Ni-coated acceptor beads)
[16] = molecular target: LRRK2 (Homo sapiens, UniProt Q5S007); assay: LRRK2 IC50 (Table 4); format: biochemical
[17] = molecular target: FKBP12 (WT) (Homo sapiens, UniProt P62942); assay: FKBP12 (WT) Ligand-Displacement AlphaScreen Assay; format: binding; settings: biotin-SLF displacement, read-out: IC50 (nM) FKBP
[18] = molecular target: FKBP12 (36V) (Homo sapiens, UniProt P62942, F37V); assay: FKBP12 (36V) Ligand-Displacement AlphaScreen Assay; format: binding; settings: biotin-SLF displacement, read-out: IC50 (nM) FKBP 36V
[19] = molecular target: T5, fusion of FKBP12 to nanoluciferase (Homo sapiens, UniProt P62942+Q96SW2); assay: FKBP Dual Luciferase Assay, wild-type 293FT, FKBP12; format: cell-based; settings: 4 hours; for Dmax: read-out: Max Degradation (dual luciferase, %) FKBP
T5 construct: expressed in transfected cells

[20] = molecular target: T6, fusion of mutant FKBP12 to nanoluciferase (Homo sapiens, UniProt P62942+Q96SW2, F37V); assay: FKBP Dual Luciferase Assay, wild-type 293FT, mutant FKBP12 (36V); format: cell-based; settings: 4 hours; read-out: Max Degradation (dual luciferase, %) FKBP 36V
T6 construct: expressed in transfected cells

[21] = 4 hours, read-out: max degradation (dual luc)
[22] = read-out: BRD4 max degradation(%) Dual Luciferase
[23] = HEK-293T; read-out: BRD4 max degradation(%) Cell Western

Row | Compound | IC50 ([3]; read-out: IC50 (nM) BRDT) [nM] | IC50 [5] [nM] | IC50 [6] [nM] | IC50 [7] [nM] | IC50 [8] [nM] | IC50 [9] [nM] | IC50 ([10]; NGP cells, Table 4) [nM] | Dmax [11, 21] [%] | Emax ([11]; BRD4 remaining at Emax) [%] | Dmax [11, 22] [%] | Dmax [12, 23] [%] | also measured
1 | Cc1sc2c(c1C)C(c1ccc(Cl)cc1)=N[C@@H](CC(=O)OC(C)(C)C)c1nnc(C)n1-2 [JQ1] | – | – | – | – | – | – | – | – | – | – | – | BRD4 degradation by treatment alone [1]: insufficient to induce BRD4 degradation; induction of apoptosis after pulsed treatment and drug washout [2]: did not yield a pronounced apoptotic response
2 | CC[C@@H]1C(=O)N(C)c2cnc(Nc3ccc(C(=O)NCCCCNC(=O)COc4cccc5c4C(=O)N(C4CCC(=O)NC4=O)C5=O)cc3OC)nc2N1C1CCCC1 (stereo partly drawn) [dBET2] | 405 | 113 | 81.2 | 110 | 192 | 6.3 | 156 | – | – | – | – | IC50 [4]: 6.15 nM
3 | Cc1sc2c(c1C)C(c1ccc(Cl)cc1)=N[C@@H](CC(=O)NCCCCCCNC(=O)COc1cccc3c1C(=O)N(C1CCC(=O)NC1=O)C3=O)c1nnc(C)n1-2 (stereo partly drawn) [dBET5] | 110 | – | – | – | – | – | – | 53 | 44.7 | 53 | 66 | –
4 | CC[C@@H]1C(=O)N(C)c2cnc(Nc3ccc(C(=O)NCCCCCCNC(=O)COc4cccc5c4C(=O)N(C4CCC(=O)NC4=O)C5=O)cc3OC)nc2N1C1CCCC1 (stereo partly drawn) [dBET7] | 549 | 16 | 29.2 | 31.4 | 46.6 | – | 131 | 54.1 | 43.7 | 54 | 63 | Conc@Emax [11]: 0.5 µM
5 | Cc1sc2c(c1C)C(c1ccc(Cl)cc1)=N[C@@H](CC(=O)NCCCOCCOCCOCCCNC(=O)COc1cccc3c1C(=O)N(C1CCC(=O)NC1=O)C3=O)c1nnc(C)n1-2 (stereo partly drawn) [dBET9] | 52 | 296 | 1550 | 1520 | – | 28 | 8420 | 24.8 | 71 | 25 | 41 | –
6 | CC[C@@H]1C(=O)N(C)c2cnc(Nc3ccc(C(=O)NCCCOCCOCCOCCCNC(=O)COc4cccc5c4C(=O)N(C4CCC(=O)NC4=O)C5=O)cc3OC)nc2N1C1CCCC1 (stereo partly drawn) [dBET10] | 309 | 163 | 152 | 271 | 452 | 28 | 413 | 25.3 | 73.1 | 25 | 20 | IC50 [4]: 10.2 nM; Conc@Emax [11]: 50 µM; IC50 [13]: 0.0127 µM; EC50 [14]: 8.12 µM; IC50 ([15]; read-out: BRD4 Alpha (IC50)): 83 nM; IC50 ([15]; read-out: IC50 (nM) BRD4): 83 nM
7 | COc1cc(C(=O)NCCCCNC(=O)COc2cccc3c2C(=O)N(C2CCC(=O)NC2=O)C3=O)ccc1Nc1ncc2c(n1)N(C)c1ccccc1C(=O)N2C (stereo not drawn) [dBET11] | 2900 | > 20000 | – | – | – | 3.38 | – | – | – | – | – | IC50 [16]: 7.3 nM; IC50 [13]: 0.0251 µM; EC50 [14]: 2430 µM; IC50 ([15]; read-out: BRD4 Alpha (IC50)): 958 nM; IC50 ([15]; read-out: IC50 (nM) BRD4): 958 nM
8 | COc1cc(C(=O)NCCCOCCOCCOCCCNC(=O)COc2cccc3c2C(=O)N(C2CCC(=O)NC2=O)C3=O)ccc1Nc1ncc2c(n1)N(C)c1ccccc1C(=O)N2C (stereo not drawn) [dBET12] | 5870 | > 20000 | – | – | – | > 20000 | – | – | – | – | – | IC50 [16]: 32 nM; IC50 [13]: 0.0238 µM; EC50 [14]: 34.4 µM
9 | Cc1sc2c(c1C)C(c1ccc(Cl)cc1)=N[C@@H](CC(=O)NCCCCCCNC(=O)c1ccc3c(c1)C(=O)N(C1CCC(=O)NC1=O)C3=O)c1nnc(C)n1-2 (stereo partly drawn) [dBET15] | – | 1270 | 6840 | 10400 | 6960 | 312 | – | – | – | 18 | – | IC50 [3]: 93 nM; Emax [11]: 78.2%; Dmax ([11]; read-out: max degradation (dual luc)): 18.2%; IC50 ([10]; NGP): > 20000 nM; Dmax ([12]; HEK-293T, read-out: BRD4 max degradation(%) Cell Western): 24%
10 | Cc1sc2c(c1C)C(c1ccc(Cl)cc1)=N[C@@H](CC(=O)NCCCN1CCN(C(=O)CCCCCNC(=O)COc3cccc4c3C(=O)N(C3CCC(=O)NC3=O)C4=O)CC1)c1nnc(C)n1-2 (stereo partly drawn) [dBET18] | 28 | 1360 | 2840 | 1790 | 1920 | – | 4960 | 36.5 | 65.4 | 37 | 57 | IC50 [13]: 0.00157 µM; EC50 [14]: 749 µM; IC50 ([15]; read-out: BRD4 Alpha (IC50)): 11 nM; IC50 ([15]; read-out: IC50 (nM) BRD4): 11 nM
11 | CCC(C)(C)C(=O)C(=O)N1CCCC[C@H]1C(=O)O[C@H](CCc1ccc(OC)c(OC)c1)c1cccc(NC(=O)CCC(=O)NCCCCNC(=O)COc2cccc3c2C(=O)N(C2CCC(=O)NC2=O)C3=O)c1 (stereo partly drawn) [dFKBP-1] | – | – | – | – | – | – | – | – | – | – | – | IC50 [17]: 274 nM; IC50 [18]: 237 nM
12 | CCC(C)(C)C(=O)C(=O)N1CCC[C@H]1C(=O)O[C@H](CCc1ccc(OC)c(OC)c1)c1cccc(OCC(=O)NCCCCNC(=O)COc2cccc3c2C(=O)N(C2CCC(=O)NC2=O)C3=O)c1 (stereo partly drawn) [dFKBP-3] | – | – | – | – | – | – | – | – | – | – | – | IC50 [18]: 1200 nM; Dmax [19]: 22%; Dmax [20]: 12%
13 | CCC(C)(C)C(=O)C(=O)N1CCCC[C@H]1C(=O)O[C@H](CCc1ccc(OC)c(OC)c1)c1cccc(OCC(=O)NCCCCNC(=O)COc2cccc3c2C(=O)N(C2CCC(=O)NC2=O)C3=O)c1 (stereo partly drawn) [dFKBP-4] | – | – | – | – | – | – | – | – | – | – | – | IC50 [18]: 369 nM; DC50 [19]: 2.97 nM; Dmax [19]: 34%; Dmax [20]: 21%
14 | COc1ccc(CC[C@@H](OC(=O)[C@@H]2CCCCN2C(=O)Cc2ccccc2)c2cccc(OCC(=O)NCCCCNC(=O)COc3cccc4c3C(=O)N(C3CCC(=O)NC3=O)C4=O)c2)cc1OC (stereo partly drawn) [dFKBP-5] | – | – | – | – | – | – | – | – | – | – | – | IC50 [18]: 2290 nM; Dmax [19]: 11%; Dmax [20]: < 5%
15 | O=C1CCC(N2C(=O)c3ccccc3C2=O)C(=O)N1 (stereo not drawn) [thalidomide] | – | – | – | – | – | – | – | – | – | – | – | BRD4 degradation by treatment alone ([1]; MV4-11, 24 h): insufficient to induce BRD4 degradation

From US10464925B2, “Methods to induce targeted protein degradation through bifunctional molecules” (Dana-Farber Cancer Institute, Inc., priority 2015, dated 2019)
